# Experimental data from article PMC8214221, “Sequence determinants in the cathelicidin LL-37 that promote inflammation via presentation of RNA to scavenger receptors” (The Journal of Biological Chemistry, 2021).
# Residues, ends and D or L forms follow the SMILES beside them.
# Test system: normal human epidermal keratinocytes (NHEKs)
# Assay: LDH release cytotoxicity assay in keratinocytes
# Format: cell-based
# Conditions: minimal concentration giving 50% LDH release by NHEKs
# Source text: Since LL-34 was the minimal truncation mutant of LL-37 that retained both antimicrobial and immune modulatory activity, we prepared a series of synthetic peptides with sequential substitutions of alanine at each amino acid position of the LL-34 parent peptide (Table 1). We compared the minimum inhibitory concentration (MIC) for the LL-34 parent peptide and the alanine mutants (LL-34 peptides—L1A and R34A) against methicillin-resistant Staphylococcus aureus strain USA300 (Fig. 1A). LL-34 peptides were incubated at concentrations of 0 to 100 μM with bacteria. The minimal concentration at which no growth was observed was noted after 18 h of incubation. […] Because of these changes in the MIC against S. aureus between the mutants, we investigated the effective toxicity profile of the peptides in normal human epidermal keratinocytes (NHEKs) by lactate dehydrogenase (LDH) release assay (Table 1). […] Most other peptides were cytotoxic at a minimal concentration of 10 μM, whereas LL-34—K15A was toxic at a concentration of 2.5 μM.
# LDH cytotoxicity assay was performed according to manufacturer's instructions (Thermo Fisher Scientific). Culture supernatants from keratinocytes were used fresh for LDH assay after experimental treatments.
row,SMILES,Minimal cytotoxic concentration in NHEK (LD50) [µM]
1,CC[C@H](C)[C@H](NC(=O)[C@H](CCCCN)NC(=O)[C@H](CCC(=O)O)NC(=O)[C@H](CCCCN)NC(=O)[C@H](CO)NC(=O)[C@H](CCCCN)NC(=O)[C@H](CCCNC(=N)N)NC(=O)[C@H](Cc1ccccc1)NC(=O)[C@H](Cc1ccccc1)NC(=O)[C@H](CC(=O)O)NC(=O)CNC(=O)[C@H](CC(C)C)NC(=O)[C@H](C)N)C(=O)NCC(=O)N[C@@H](CCCCN)C(=O)N[C@@H](CCC(=O)O)C(=O)N[C@@H](Cc1ccccc1)C(=O)N[C@@H](CCCCN)C(=O)N[C@@H](CCCNC(=N)N)C(=O)N[C@H](C(=O)N[C@H](C(=O)N[C@@H](CCC(N)=O)C(=O)N[C@@H](CCCNC(=N)N)C(=O)N[C@H](C(=O)N[C@@H](CCCCN)C(=O)N[C@@H](CC(=O)O)C(=O)N[C@@H](Cc1ccccc1)C(=O)N[C@@H](CC(C)C)C(=O)N[C@@H](CCCNC(=N)N)C(=O)N[C@@H](CC(N)=O)C(=O)N[C@@H](CC(C)C)C(=O)N[C@H](C(=O)N1CCC[C@H]1C(=O)N[C@@H](CCCNC(=N)N)C(=O)O)C(C)C)[C@@H](C)CC)C(C)C)[C@@H](C)CC [LL-34—L1A] (H-ALGDFFRKSKEKIGKEFKRIVQRIKDFLRNLVPR-OH; N-terminus and C-terminus assumed),5
2,CC[C@H](C)[C@H](NC(=O)[C@H](CCCCN)NC(=O)[C@H](CCC(=O)O)NC(=O)[C@H](CCCCN)NC(=O)[C@H](CO)NC(=O)[C@H](CCCCN)NC(=O)[C@H](CCCNC(=N)N)NC(=O)[C@H](Cc1ccccc1)NC(=O)[C@H](Cc1ccccc1)NC(=O)[C@H](CC(=O)O)NC(=O)CNC(=O)[C@H](C)NC(=O)[C@@H](N)CC(C)C)C(=O)NCC(=O)N[C@@H](CCCCN)C(=O)N[C@@H](CCC(=O)O)C(=O)N[C@@H](Cc1ccccc1)C(=O)N[C@@H](CCCCN)C(=O)N[C@@H](CCCNC(=N)N)C(=O)N[C@H](C(=O)N[C@H](C(=O)N[C@@H](CCC(N)=O)C(=O)N[C@@H](CCCNC(=N)N)C(=O)N[C@H](C(=O)N[C@@H](CCCCN)C(=O)N[C@@H](CC(=O)O)C(=O)N[C@@H](Cc1ccccc1)C(=O)N[C@@H](CC(C)C)C(=O)N[C@@H](CCCNC(=N)N)C(=O)N[C@@H](CC(N)=O)C(=O)N[C@@H](CC(C)C)C(=O)N[C@H](C(=O)N1CCC[C@H]1C(=O)N[C@@H](CCCNC(=N)N)C(=O)O)C(C)C)[C@@H](C)CC)C(C)C)[C@@H](C)CC [LL-34—L2A] (H-LAGDFFRKSKEKIGKEFKRIVQRIKDFLRNLVPR-OH; N-terminus and C-terminus assumed),5
3,CC[C@H](C)[C@H](NC(=O)[C@H](CCCCN)NC(=O)[C@H](CCC(=O)O)NC(=O)[C@H](CCCCN)NC(=O)[C@H](CO)NC(=O)[C@H](CCCCN)NC(=O)[C@H](CCCNC(=N)N)NC(=O)[C@H](Cc1ccccc1)NC(=O)[C@H](Cc1ccccc1)NC(=O)[C@H](CC(=O)O)NC(=O)CNC(=O)[C@H](CC(C)C)NC(=O)[C@@H](N)CC(C)C)C(=O)NCC(=O)N[C@@H](CCCCN)C(=O)N[C@@H](CCC(=O)O)C(=O)N[C@@H](Cc1ccccc1)C(=O)N[C@@H](CCCCN)C(=O)N[C@@H](CCCNC(=N)N)C(=O)N[C@H](C(=O)N[C@H](C(=O)N[C@@H](CCC(N)=O)C(=O)N[C@@H](CCCNC(=N)N)C(=O)N[C@H](C(=O)N[C@@H](CCCCN)C(=O)N[C@@H](CC(=O)O)C(=O)N[C@@H](Cc1ccccc1)C(=O)N[C@@H](CC(C)C)C(=O)N[C@@H](CCCNC(=N)N)C(=O)N[C@@H](C)C(=O)N[C@@H](CC(C)C)C(=O)N[C@H](C(=O)N1CCC[C@H]1C(=O)N[C@@H](CCCNC(=N)N)C(=O)O)C(C)C)[C@@H](C)CC)C(C)C)[C@@H](C)CC [LL-34—N30A] (H-LLGDFFRKSKEKIGKEFKRIVQRIKDFLRALVPR-OH; N-terminus and C-terminus assumed),10
4,CC[C@H](C)[C@H](NC(=O)[C@H](CCCCN)NC(=O)[C@H](CCC(=O)O)NC(=O)[C@H](CCCCN)NC(=O)[C@H](CO)NC(=O)[C@H](CCCCN)NC(=O)[C@H](CCCNC(=N)N)NC(=O)[C@H](Cc1ccccc1)NC(=O)[C@H](Cc1ccccc1)NC(=O)[C@H](CC(=O)O)NC(=O)CNC(=O)[C@H](CC(C)C)NC(=O)[C@@H](N)CC(C)C)C(=O)NCC(=O)N[C@@H](CCCCN)C(=O)N[C@@H](CCC(=O)O)C(=O)N[C@@H](Cc1ccccc1)C(=O)N[C@@H](CCCCN)C(=O)N[C@@H](CCCNC(=N)N)C(=O)N[C@H](C(=O)N[C@H](C(=O)N[C@@H](CCC(N)=O)C(=O)N[C@@H](CCCNC(=N)N)C(=O)N[C@H](C(=O)N[C@@H](CCCCN)C(=O)N[C@@H](CC(=O)O)C(=O)N[C@@H](Cc1ccccc1)C(=O)N[C@@H](CC(C)C)C(=O)N[C@@H](CCCNC(=N)N)C(=O)N[C@@H](CC(N)=O)C(=O)N[C@@H](CC(C)C)C(=O)N[C@H](C(=O)N[C@@H](C)C(=O)N[C@@H](CCCNC(=N)N)C(=O)O)C(C)C)[C@@H](C)CC)C(C)C)[C@@H](C)CC [LL-34—P33A] (H-LLGDFFRKSKEKIGKEFKRIVQRIKDFLRNLVAR-OH; N-terminus and C-terminus assumed),10
5,CC[C@H](C)[C@H](NC(=O)[C@H](CCCCN)NC(=O)[C@H](CCC(=O)O)NC(=O)[C@H](CCCCN)NC(=O)[C@H](CO)NC(=O)[C@H](CCCCN)NC(=O)[C@H](CCCNC(=N)N)NC(=O)[C@H](Cc1ccccc1)NC(=O)[C@H](Cc1ccccc1)NC(=O)[C@H](CC(=O)O)NC(=O)CNC(=O)[C@H](CC(C)C)NC(=O)[C@@H](N)CC(C)C)C(=O)NCC(=O)N[C@@H](CCCCN)C(=O)N[C@@H](CCC(=O)O)C(=O)N[C@@H](Cc1ccccc1)C(=O)N[C@@H](CCCCN)C(=O)N[C@@H](CCCNC(=N)N)C(=O)N[C@H](C(=O)N[C@H](C(=O)N[C@@H](C)C(=O)N[C@@H](CCCNC(=N)N)C(=O)N[C@H](C(=O)N[C@@H](CCCCN)C(=O)N[C@@H](CC(=O)O)C(=O)N[C@@H](Cc1ccccc1)C(=O)N[C@@H](CC(C)C)C(=O)N[C@@H](CCCNC(=N)N)C(=O)N[C@@H](CC(N)=O)C(=O)N[C@@H](CC(C)C)C(=O)N[C@H](C(=O)N1CCC[C@H]1C(=O)N[C@@H](CCCNC(=N)N)C(=O)O)C(C)C)[C@@H](C)CC)C(C)C)[C@@H](C)CC [LL-34—Q22A] (H-LLGDFFRKSKEKIGKEFKRIVARIKDFLRNLVPR-OH; N-terminus and C-terminus assumed),5
6,CC[C@H](C)[C@H](NC(=O)[C@H](CCCCN)NC(=O)[C@H](CCC(=O)O)NC(=O)[C@H](CCCCN)NC(=O)[C@H](CO)NC(=O)[C@H](CCCCN)NC(=O)[C@H](C)NC(=O)[C@H](Cc1ccccc1)NC(=O)[C@H](Cc1ccccc1)NC(=O)[C@H](CC(=O)O)NC(=O)CNC(=O)[C@H](CC(C)C)NC(=O)[C@@H](N)CC(C)C)C(=O)NCC(=O)N[C@@H](CCCCN)C(=O)N[C@@H](CCC(=O)O)C(=O)N[C@@H](Cc1ccccc1)C(=O)N[C@@H](CCCCN)C(=O)N[C@@H](CCCNC(=N)N)C(=O)N[C@H](C(=O)N[C@H](C(=O)N[C@@H](CCC(N)=O)C(=O)N[C@@H](CCCNC(=N)N)C(=O)N[C@H](C(=O)N[C@@H](CCCCN)C(=O)N[C@@H](CC(=O)O)C(=O)N[C@@H](Cc1ccccc1)C(=O)N[C@@H](CC(C)C)C(=O)N[C@@H](CCCNC(=N)N)C(=O)N[C@@H](CC(N)=O)C(=O)N[C@@H](CC(C)C)C(=O)N[C@H](C(=O)N1CCC[C@H]1C(=O)N[C@@H](CCCNC(=N)N)C(=O)O)C(C)C)[C@@H](C)CC)C(C)C)[C@@H](C)CC [LL-34—R7A] (H-LLGDFFAKSKEKIGKEFKRIVQRIKDFLRNLVPR-OH; N-terminus and C-terminus assumed),5
7,CC[C@H](C)[C@H](NC(=O)[C@H](C)NC(=O)[C@H](CCCCN)NC(=O)[C@H](Cc1ccccc1)NC(=O)[C@H](CCC(=O)O)NC(=O)[C@H](CCCCN)NC(=O)CNC(=O)[C@@H](NC(=O)[C@H](CCCCN)NC(=O)[C@H](CCC(=O)O)NC(=O)[C@H](CCCCN)NC(=O)[C@H](CO)NC(=O)[C@H](CCCCN)NC(=O)[C@H](CCCNC(=N)N)NC(=O)[C@H](Cc1ccccc1)NC(=O)[C@H](Cc1ccccc1)NC(=O)[C@H](CC(=O)O)NC(=O)CNC(=O)[C@H](CC(C)C)NC(=O)[C@@H](N)CC(C)C)[C@@H](C)CC)C(=O)N[C@H](C(=O)N[C@@H](CCC(N)=O)C(=O)N[C@@H](CCCNC(=N)N)C(=O)N[C@H](C(=O)N[C@@H](CCCCN)C(=O)N[C@@H](CC(=O)O)C(=O)N[C@@H](Cc1ccccc1)C(=O)N[C@@H](CC(C)C)C(=O)N[C@@H](CCCNC(=N)N)C(=O)N[C@@H](CC(N)=O)C(=O)N[C@@H](CC(C)C)C(=O)N[C@H](C(=O)N1CCC[C@H]1C(=O)N[C@@H](CCCNC(=N)N)C(=O)O)C(C)C)[C@@H](C)CC)C(C)C [LL-34—R19A] (H-LLGDFFRKSKEKIGKEFKAIVQRIKDFLRNLVPR-OH; N-terminus and C-terminus assumed),10
8,CC[C@H](C)[C@H](NC(=O)[C@H](CCCCN)NC(=O)[C@H](CCC(=O)O)NC(=O)[C@H](CCCCN)NC(=O)[C@H](CO)NC(=O)[C@H](CCCCN)NC(=O)[C@H](CCCNC(=N)N)NC(=O)[C@H](Cc1ccccc1)NC(=O)[C@H](Cc1ccccc1)NC(=O)[C@H](CC(=O)O)NC(=O)CNC(=O)[C@H](CC(C)C)NC(=O)[C@@H](N)CC(C)C)C(=O)NCC(=O)N[C@@H](CCCCN)C(=O)N[C@@H](CCC(=O)O)C(=O)N[C@@H](Cc1ccccc1)C(=O)N[C@@H](CCCCN)C(=O)N[C@@H](CCCNC(=N)N)C(=O)N[C@H](C(=O)N[C@H](C(=O)N[C@@H](CCC(N)=O)C(=O)N[C@@H](CCCNC(=N)N)C(=O)N[C@H](C(=O)N[C@@H](CCCCN)C(=O)N[C@@H](CC(=O)O)C(=O)N[C@@H](Cc1ccccc1)C(=O)N[C@@H](CC(C)C)C(=O)N[C@@H](C)C(=O)N[C@@H](CC(N)=O)C(=O)N[C@@H](CC(C)C)C(=O)N[C@H](C(=O)N1CCC[C@H]1C(=O)N[C@@H](CCCNC(=N)N)C(=O)O)C(C)C)[C@@H](C)CC)C(C)C)[C@@H](C)CC [LL-34—R29A] (H-LLGDFFRKSKEKIGKEFKRIVQRIKDFLANLVPR-OH; N-terminus and C-terminus assumed),5
